Data from patent US10092648B2, “Selective glucagon-like-peptide-2 (GLP-2) analogues” (Zealand Pharma A/S, priority 2006, dated 2018).
Several values for one entry are separate records, joined by “and”; a condition that tells them apart may be missing. Identical values can stand only once.

Tests used:
male C57BL mice [1] = experiment: In vivo stimulation of stomach growth, 200 nmol/kg (Example 12)
Method: The effects of the test compounds according to the invention were determined based on the ability of the peptides to selectively increase stomach mass, relative to vehicle control. The ability of the present compounds (ZP2395, ZP2396, ZP2400, ZP2412, ZP2394 and ZP2401) to selectively stimulate stomach mass, relative to colon mass was determined in male C57BL mice. Individual groups (n=6-10) of mice were given 200 nmol/kg of each compound, s.c, once daily for three consecutive days. For comparison purposes other groups of animals were given either an equimolar dose of [[…]]GLP-2 or vehicle (phosphate buffered saline, pH 7.4) in the same dosing regimen. Twenty-four hours after the last dose of compound had been given the mice were sacrificed and the stomach and small intestine (from the pylorus to the ileocaecal junction) emptied and weighed. To correct for slight difference in body weight (BW), the organ mass of the stomach is presented relative to BW. […] To evaluate the differential growth pattern induced by ZP compounds, compared to [[…]]GLP-2, on the stomach, the stomach-colon sensitivity index of compound X was calculated as: (Stomach/Colon)x/Stomach/(Colon)[[…]]GLP-2% Compounds with a stomach/colon sensitivity greater than or equal to 1.05 were considered relatively selective for the stomach.

male C57BL mice [2] = experiment: In vivo stimulation of intestinal growth, 200 nmol/kg (Example 11); settings: for Sensitivity index Si/Colon: relative to 1559
Method: The ability of further compounds to selectively stimulate small intestinal mass, relative to colon mass was determined in male C57BL mice. A similar protocol was used to that described above in Example 10 except that 200 nmol/kg of each compound was administered per day. Thus, individual groups (n=6-10) of mice were given 200 nmol/kg of each compound, s.c, once daily for three consecutive days. Other groups of animals were given either an equimolar dose of [[…]]GLP-2 (reference compound) or vehicle (phosphate buffered saline, pH 7.4; negative controls) in the same dosing regimen. Twenty-four hours after the last dose of compound the mice were sacrificed and the stomach, small intestine and the colon emptied and weighed.

[3] = 200 nmol/kg s.c. once daily for 3 days
[4] = 200 nmol/kg s.c. once daily for 3 days, relative to 1559
[5] = colon weight relative to body weight, relative to ZP1559
[6] = small intestine weight relative to body weight, relative to ZP1559

Substance	Sto-BW, compared to 1559 in % (male C57BL mice [1]; [3]) [%]	Sensitivity index Stomach/Co (male C57BL mice [1]; [4])	Sensitivity index Stomach/Co (male C57BL mice [1]; ratio Stomach-BW / Colon-BW)	Colon-BW, compared to 1559 in % (male C57BL mice [2]; [3]) [%]	Preferential stimulation of epithelial growth in the small intestine (summary) (male C57BL mice [2]; [3])	SI-BW, compared to 1559 in % (male C57BL mice [2]; [3]) [%]	Selectivity for small intestinal mass relative to colon mass (FIG. 6) (male C57BL mice [2]; [3])	Sensitivity index Si/Colon (male C57BL mice [2]; [3])	Colon-BW, compared to 1559 in % (male C57BL mice [2]; [5]) [%]	SI-BW, compared to 1559 in % (male C57BL mice [2]; [6]) [%]	Organ selectivity (FIG. 8, unselective compounds) (male C57BL mice [2]; [3])	Selectivity for stomach mass relative to colon mass (FIG. 7) (male C57BL mice [1]; [3])	Preferential stimulation of epithelial growth in the stomach (summary) (male C57BL mice [1]; [3])
H-HGEGSFSDELATI LEALAASDFIAWLIATKITDKKKKKK-NH2 [ZP2423]	94	0.86	0.86	109	preferentially stimulating epithelial growth in the small intestine	123	selectively increase small intestinal mass, relative to colon mass	1.13	109	123	–	–	–
H-HGEGSFSDELATILEALAAADFIAWLIATKITDKKKKKK-NH2 [ZP2402]	102	0.90	–	113	–	110	–	0.97	–	–	unselective for the small intestine, colon or stomach	–	–
H-HGEGSFSDELATILEALAAADFIAWLISTKITD-NH2 [ZP2397]	109	1.08	1.08	101	preferentially stimulating epithelial growth in the small intestine	122	selectively increase small intestinal mass, relative to colon mass	1.21	101	122	–	–	–
H-HGEGSFSDELATILEALAAADFIAWLISTKITDKKKKKK-NH2 [ZP2384]	100	0.85	0.85	118	preferentially stimulating epithelial growth in the small intestine	128	selectively increase small intestinal mass, relative to colon mass	1.08	118	128	–	–	–
H-HGEGSFSDELATILEALAAADFISWLIATKITD-NH2 [ZP2418]	91	0.91	0.91	100	preferentially stimulating epithelial growth in the small intestine	117	selectively increase small intestinal mass, relative to colon mass	1.17	100	117	–	–	–
H-HGEGSFSDELATILEALAAADFISWLIATKITDKKKKKK-NH2 [ZP2411]	106	0.95	0.95	111	preferentially stimulating epithelial growth in the small intestine	117	selectively increase small intestinal mass, relative to colon mass	1.05	111	117	–	–	–
H-HGEGSFSDELATILEALAASDFIAWLIATKITD-NH2 [ZP2417]	90	0.85	0.85	106	preferentially stimulating epithelial growth in the small intestine	119	selectively increase small intestinal mass, relative to colon mass	1.12	106	119	–	–	–
H-HGEGSFSDELATILEALAASDFISWLISTKITDKKKKKK-NH2 [ZP2381]	92	0.88	0.88	104	preferentially stimulating epithelial growth in the small intestine	123	selectively increase small intestinal mass, relative to colon mass	1.18	104	123	–	–	–
H-HGEGSFSDELATILESLAAADFIAWLIATKITD-NH2 [ZP2414]	110	1.04	–	106	–	105	–	0.99	–	–	unselective for the small intestine, colon or stomach	selectively increase stomach mass, relative to colon mass	–
H-HGEGSFSDELATILESLAAADFIAWLIATKITDKKKKKK-NH2 [ZP2415]	100	0.94	–	106	–	106	–	1.00	–	–	unselective for the small intestine, colon or stomach	–	–
H-HGEGSFSDELATILESLAAADFISWLIATKITDKKKKKK-NH2 [ZP2413]	108	0.92	–	117	–	116	–	0.99	–	–	unselective for the small intestine, colon or stomach	–	–
H-HGEGSFSDELATILESLAASDFISWLISTKITD-NH2 [ZP2399]	115	1.12	1.12	103	preferentially stimulating epithelial growth in the small intestine	119	selectively increase small intestinal mass, relative to colon mass	1.16	103	119	–	–	–
H-HGEGSFSDELATILESLAASDFISWLISTKITDKKKKKK-NH2 [ZP2386]	95	0.86	–	111	–	113	–	1.02	–	–	unselective for the small intestine, colon or stomach	–	–
H-HGEGSFSDELETILEELAAEDFIEWLIETKITDKKKKKK-NH2 [ZP2378]	94	0.97	–	97	–	91	–	0.94	–	–	unselective for the small intestine, colon or stomach	–	–
H-HGEGSFSDELFTILEFLAASDFISWLISTKITD-NH2 [ZP2401]	107	1.22	1.22	88	–	98	–	1.11	88	98	–	selectively increase stomach mass, relative to colon mass	preferentially stimulating epithelial growth in the stomach
H-HGEGSFSDELFTILEFLAASDFISWLISTKITDKKKKKK-NH2 [ZP2396]	117	1.15	1.16 and 1.15	102	–	104	–	1.02	102	104	–	selectively increase stomach mass, relative to colon mass	preferentially stimulating epithelial growth in the stomach
H-HGEGSFSDELKTILEKLAAKDFIKWLIKTKITDKKKKKK-NH2 [ZP2395]	113	1.16	1.16	97	–	98	–	1.01	97	98	–	selectively increase stomach mass, relative to colon mass	preferentially stimulating epithelial growth in the stomach
